In patent US6593306B1, “Methods for modulation and inhibition of telomerase” (Board of Regents, The University of Texas Systems, priority 1995, dated 2003):

Tests used:
Assay type in all cases: biochemical
[1] = target: T1, human cancer telomerase (Homo sapiens, UniProt O14746); experiment: Nucleoside triphosphate as telomerase substrate, dGTP replaced in modified reaction; settings: modified assay; 1 mM dTTP, 3.12 μM [α-32P]dATP
T1 construct: endogenous in cells; host or cells: human cancer cells
T1 sequence (O14746 whole entry): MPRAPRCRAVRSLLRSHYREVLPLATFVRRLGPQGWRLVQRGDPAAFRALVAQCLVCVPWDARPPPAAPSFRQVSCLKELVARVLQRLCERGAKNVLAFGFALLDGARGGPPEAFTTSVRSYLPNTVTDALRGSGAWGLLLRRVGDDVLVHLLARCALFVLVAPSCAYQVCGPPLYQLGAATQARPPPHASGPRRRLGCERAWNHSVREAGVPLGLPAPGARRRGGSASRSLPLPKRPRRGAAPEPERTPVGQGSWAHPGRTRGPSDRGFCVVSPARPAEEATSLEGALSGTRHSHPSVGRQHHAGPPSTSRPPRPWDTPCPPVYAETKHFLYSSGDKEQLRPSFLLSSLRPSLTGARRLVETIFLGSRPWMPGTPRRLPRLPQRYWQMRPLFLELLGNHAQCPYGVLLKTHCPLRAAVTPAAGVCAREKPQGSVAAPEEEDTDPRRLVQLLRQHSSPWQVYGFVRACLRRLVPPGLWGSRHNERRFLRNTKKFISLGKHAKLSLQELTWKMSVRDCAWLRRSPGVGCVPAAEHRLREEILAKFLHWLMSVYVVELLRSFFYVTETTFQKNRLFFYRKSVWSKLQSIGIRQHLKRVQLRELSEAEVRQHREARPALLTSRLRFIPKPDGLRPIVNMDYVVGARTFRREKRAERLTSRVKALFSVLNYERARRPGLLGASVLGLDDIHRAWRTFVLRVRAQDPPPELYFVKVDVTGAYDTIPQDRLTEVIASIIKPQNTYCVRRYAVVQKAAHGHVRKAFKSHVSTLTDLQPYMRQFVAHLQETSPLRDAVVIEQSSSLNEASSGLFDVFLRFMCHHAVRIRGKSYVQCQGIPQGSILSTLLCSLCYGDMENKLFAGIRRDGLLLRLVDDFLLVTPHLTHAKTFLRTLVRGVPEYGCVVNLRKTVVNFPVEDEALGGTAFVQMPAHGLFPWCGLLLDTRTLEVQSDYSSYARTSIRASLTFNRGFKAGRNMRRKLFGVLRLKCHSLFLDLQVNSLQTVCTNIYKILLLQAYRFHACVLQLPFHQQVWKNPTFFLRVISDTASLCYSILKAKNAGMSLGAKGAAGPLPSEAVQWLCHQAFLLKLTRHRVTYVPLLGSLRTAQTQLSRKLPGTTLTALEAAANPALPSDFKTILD
T1 sequence (O60832 whole entry partner): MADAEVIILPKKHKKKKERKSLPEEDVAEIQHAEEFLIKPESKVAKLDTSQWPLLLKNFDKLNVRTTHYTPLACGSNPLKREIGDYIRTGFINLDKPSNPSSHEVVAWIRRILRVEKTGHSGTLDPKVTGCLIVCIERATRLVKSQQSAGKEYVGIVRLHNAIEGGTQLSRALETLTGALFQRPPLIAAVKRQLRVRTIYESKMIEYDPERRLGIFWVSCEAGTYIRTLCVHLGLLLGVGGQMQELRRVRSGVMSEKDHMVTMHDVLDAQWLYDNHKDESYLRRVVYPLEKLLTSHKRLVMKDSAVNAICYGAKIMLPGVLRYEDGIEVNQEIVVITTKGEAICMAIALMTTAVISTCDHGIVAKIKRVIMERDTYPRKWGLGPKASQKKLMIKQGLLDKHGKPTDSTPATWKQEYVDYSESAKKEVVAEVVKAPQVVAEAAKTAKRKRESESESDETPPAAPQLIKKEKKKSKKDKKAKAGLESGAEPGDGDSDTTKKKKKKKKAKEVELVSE
T1 sequence (Q9NPE3 whole entry partner): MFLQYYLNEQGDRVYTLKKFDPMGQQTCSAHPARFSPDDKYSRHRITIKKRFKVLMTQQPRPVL
T1 sequence (Q9NX24 whole entry partner): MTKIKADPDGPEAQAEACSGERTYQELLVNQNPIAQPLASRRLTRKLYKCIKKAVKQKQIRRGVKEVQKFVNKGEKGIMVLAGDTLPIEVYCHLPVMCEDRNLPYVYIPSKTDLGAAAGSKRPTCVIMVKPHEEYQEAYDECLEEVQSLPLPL
T1 sequence (Q9NY12 whole entry partner): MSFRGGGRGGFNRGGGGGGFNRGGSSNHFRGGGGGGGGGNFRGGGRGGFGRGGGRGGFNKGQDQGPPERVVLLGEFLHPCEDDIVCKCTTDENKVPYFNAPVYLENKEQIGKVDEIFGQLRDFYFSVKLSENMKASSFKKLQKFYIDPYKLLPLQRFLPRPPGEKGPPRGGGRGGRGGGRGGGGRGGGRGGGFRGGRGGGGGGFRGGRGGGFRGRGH

[2] = target: T2, human 293 cell telomerase (Homo sapiens, UniProt O14746); experiment: Modified telomerase assay (32P-dATP as radiolabeled substrate); settings: for Inhibition of 293 cell telomerase, modified assay: competing radioactive nucleotide 3.12 μM [α32P]dATP
T2 construct: with 20 μl of S100 enzyme extract; endogenous in cells; host or cells: 293 cells (transformed human embryonic kidney), S100 extract
T2 sequence (O14746 whole entry): as the sequence (O14746 whole entry) above
T2 sequence (O60832 whole entry partner): as the sequence (O60832 whole entry partner) above
T2 sequence (Q9NPE3 whole entry partner): as the sequence (Q9NPE3 whole entry partner) above
T2 sequence (Q9NX24 whole entry partner): as the sequence (Q9NX24 whole entry partner) above
T2 sequence (Q9NY12 whole entry partner): as the sequence (Q9NY12 whole entry partner) above
Experimental: (§1) Telomerase was prepared from transformed human embryonic kidney 293 cell line. Human embryonic kidney 293 cells were grown in Joklik's modified MEM niedium (Sigma, St Louis, Mo.) supplemented with 5% fetal bovine serum at 37° C. in a humidified atmosphere with 5% CO2. The cells were subcultured at 1-2×10^5 cells/ml twice a week. When the cells grew to approximately 1×10^6 cells/ml, the cells (˜2×10^9 cells) were centrifuged and transferred into polypropylene centrifuge (50 ml) tubes and kept on ice. The cells were then centrifuged in a (Beckman GS-6R) centrifuge at 1200 RPM for 10 minutes at 4° C., and resuspended in PBS. The washed cells were resuspended in 15 ml Hypobuffer Mix (10 mM HEPES, pH 8.0, 3 mM KCl, 1 mM MgCl2, 1 mM dithiothreitol, 1 μM leupeptin, 0.1 mM PMSF, 10 μM pepstatin, 0.83 μg/ml chymostatin, 0.83 μg/ml antipain, and 43.2 units/ml RNase Guard) and centrifuged. The cell pellets were resuspended in 0.75×volumes Hypobuffer [Hypobuffer Mix+40 units/ml RNase Guard (Pharmacia, N.J.) to allow the cells to swell. The cell suspensions were homogenized to allow the telomerase to “leak” into the cytosolic fraction. The lysate was then poured into new, autoclaved, 3 ml polyallomer ultracentrifuge tubes and centrifuged at 100,000×g for 1 hour at 4° C. A top lipid layer was carefully removed and discarded, and the supernatant was collected. 1/50 of the volume of 5 M NaCl was added to the clear supernatant fluid to achieve a final concentration of 0.1 M. Sterile glycerol was added until the final glycerol concentration was 20%. The enzyme solution was aliquoted into Eppendorf tubes and quickly frozen in liquid nitrogen and stored at −70° C.
In the conventional telomerase assay, the concentrations of both non-radiolabeled nucleotides, dATP and dTTP, are 1 mM, and the concentration of the radiolabeled [^32P]dGTP is 1.56 μM. Because of the high concentration of dATP and dTTP, the standard assay may not be suitable for determining the potential telomerase inhibition of any “Adenine or Thymine” analogs. […] All other chemicals and reaction conditions are identical to the conventional assay.

[3] = target: T1, human cancer telomerase; experiment: Nucleoside triphosphate as telomerase substrate, dATP replaced in conventional reaction; settings: for incorporation into telomeric ladders, replacing dATP: conventional assay, 0.125-2 mM tested; for Substrate of 293 Telomerase: dATP analogs
Excerpt: As described in Section 2, telomerase catalyzes the incorporation of dATP, dTTP and [α-^32P]dGTP into a (TTAGGG)3 primer. In order to determine whether dATP analog can be incorporated into telomere, native dATP in the standard telomerase reaction is replaced with various concentrations of dATP analogs. Following the reaction, telomeric products are isolated and analyzed as described in Section 2. Similarly, native dTTP in the standard telomerase reaction can be replaced by a structurally modified dTTP analog to test whether the dTTP analog can be used as a telomerase substrate.

[4] = target: T2, human 293 cell telomerase; experiment: Conventional telomerase assay (32P-dGTP as radiolabel substrate); settings: for Inhibition of 293 Telomerase, Conventional Assay *dGTP: up to 2 mM
Experimental: as §1
The assay is based on the ability of the telomerase enzyme in the S100 fractions to recognize an 18-base DNA primer with the DNA sequence (TTAGGG)3. DNA polymerization initiates from the 3′-OH group of the oligonucleotide. By reading from its complementary internal RNA template, telomerase adds a repeated set of 5′-TTAGGG-3′ to the original 18-base primer. Non-synchronous “starts” and “terminations” among the different enzyme complexes result in a degenerative set of different length DNA primers occurring in 6-base increments. Incorporation of [α-^32P]dGTP at the guanine positions of the 5′-TTAGGG-3′ sequence allows the newly synthesized DNA fragments to be visualized by autoradiography. The resulting image forms the characteristic “ladder” structure that is used to identify telomerase activity. The images are scanned using a phosphoimager or laser densitometer (Molecular Dynamics, Sunnyvale, Calif.). Comparisons of the total volumes under the corresponding peaks are used to quantitate the total amount of [α-^32P] incorporated in the primer extension reaction.
The telomerase assay was initiated by mixing 20 μl of 2×reaction mix (100 mM Tris-OAc, pH 8.5, 100 mM KOAc, 10 mM β-mercaptoethanol, 2 mM spermidine, 2 mM MgCl2, 2 mM dATP, 2 mM dTTP, 2 μM oligo primer, potential inhibitors of interest at the appropriate concentration, and 50 μCi [α^32-P]dGTP) with 20 μl of S100 enzyme extract. The reaction mixture was then incubated at 30° C. for 1 hour. The reaction was stopped by incubating sequentially with 50 μl of the stop solution (10 mM Tris pH 7.5, 20 mM EDTA, 0.1 mg/ml RNase A) and 50 μl of deproteinase solution (10 mM Tris pH 7.5, 0.5% SDS, 0.3 mg/ml Proteinase K). The mixture was extracted with 50% phenol/50% chloroform (v/v). The DNA was then precipitated by adding 2.5×volumes of cold EtOH and letting it stand overnight at −70° C. The DNAs were separated on an 8% polyacrylamide/7M urea denaturing gel at 1600 V for 1.5 hours. The gel was dried and exposed to Kodak XAR-5 film to gel in −70° C. Typical autoradiographic exposures required 3-14 days.

[5] = 0.125 mM, read-out: % of Control
[6] = 0.25 mM, read-out: % of Control

Nc1nc2c(ccn2[C@H]2C[C@H](O)[C@@H](COP(=O)(O)OP(=O)(O)OP(=O)(O)O)O2)c(=S)[nH]1 [Compound 8, 6-Thio-7-deaza-2′-deoxyguanosine Triphosphate]
incorporation into telomeric ladders, replacing dGTP [1]: incorporation

Nc1ncnc2c1ncn2[C@H]1C[C@H](O)[C@@H](COP(=O)(O)OP(=O)(O)CP(=O)(O)O)O1 [NA004, 2′-Deoxyadenosine-5′-β,γ-Methylene Triphosphate]
% of Control ([2]; 0.125 mM): 6% | % of Control ([2]; 0.25 mM): 1.7% | % of Control ([2]; 0.5 mM): 0% | % of Control ([2]; 1.0 mM): 0% | % of Control ([2]; 2 mM): 0% | Inhibition of 293 cell telomerase, modified assay [2]: concentration-dependent inhibition | incorporation into telomeric ladders, replacing dATP [3]: incorporated | Substrate of 293 Telomerase [3]: Replace dATP Is a substrate No substrate inhibition | % of Control ([4]; 0.125 mM): 70% | % of Control ([4]; 0.25 mM): 72% | % of Control ([4]; 0.5 mM): 88% | % of Control ([4]; 1.0 mM): 98% | % of Control ([4]; 2.0 mM): 99% | Inhibition of 293 Telomerase, Conventional Assay *dGTP [4]: No Inhibition (Up to 2 mM)

Nc1ncnc2c1ncn2[C@H]1C[C@H](O)[C@@H](COP(O)(=S)OP(=O)(O)OP(=O)(O)O)O1 (some centres unmarked) [NA006, 2′-Deoxyadenosine-5′—O—(1-Thio-Triphosphate)]
remaining activity at 125 µM [2, 5]: 0% | remaining activity at 250 µM [2, 6]: 0% | remaining activity at 500 µM ([2]; 0.5 mM, read-out: % of Control): 0% | remaining activity at 1000 µM ([2]; 1.0 mM, read-out: % of Control): 0% | remaining activity at 2000 µM ([2]; 2 mM, read-out: % of Control): 0% | Inhibition of 293 cell telomerase, modified assay [2]: concentration-dependent inhibition | incorporation into telomeric ladders, replacing dATP [3]: incorporated | Substrate of 293 Telomerase [3]: Is a substrate No substrate inhibition | remaining activity at 125 µM [4, 5]: 120% | remaining activity at 250 µM [4, 6]: 103% | remaining activity at 500 µM ([4]; 0.5 mM, read-out: % of Control): 103% | remaining activity at 1000 µM ([4]; 1.0 mM, read-out: % of Control): 100% | remaining activity at 2000 µM ([4]; 2.0 mM, read-out: % of Control): 113% | Inhibition of 293 Telomerase, Conventional Assay *dGTP [4]: No Inhibition (up to 2 mM)
